Data on two molecules can be found in the NIST ThermoML archive (doi:10.1016/j.fluid.2014.12.001).

The conditions of data set [1]: Crystal; visual observation.
Data set [2] in a line: Molar enthalpy of transition or fusion. The conditions noted are these: Crystal; DSC.

± gives the expanded uncertainty stated by the source.

On to `Oc1cccc2ccccc12` [1-naphthol], for which the Normal melting temperature in data set [1] was found to be 95.10 ± 1.1 °C. The “Molar enthalpy of transition or fusion” value in data set [2] was found to be 5.2 ± 0.237 kcal/mol.
Taken in the same sequence, the figures for `Nc1ccccc1[N+](=O)[O-]` [2-nitroaniline] were 69.7 ± 1.1 °C and 4.6 ± 0.21 kcal/mol.
